# Test results published in patent US10028509B2 (priority 2012, dated 2018).
# Like-named read-outs stand apart in the source and are kept apart here.
# What was measured:
# Type in all cases: in vivo
# Alternaria solani = assay: Alternaria Test (Tomatoes)/Preventive; settings: preventive spray, 100 ppm a.i., evaluated 3 days after inoculation
# Phytophthora infestans = settings: tomatoes, preventive spray, evaluated 3 days after inoculation
# Venturia inaequalis = assay: Venturia Test (Apples)/Preventive; settings: preventive spray, evaluated 10 days after inoculation
molecule,measurement,setting,value
"O=C(NCc1ncc(C(F)(F)F)cc1Cl)c1c(Cl)cccc1Cl [F143 fluopicolide, fluopicolide]",Efficacy in % found,Alternaria solani,0%
same,Efficacy in % found,"Phytophthora infestans; Table A1, 5 ppm a.i.",32%
"N#Cc1c(Cl)c(Cl)c(Cl)c(C#N)c1Cl [F155 chlorothalonil, chlorothalonil]",Efficacy in % found,Venturia inaequalis; 10 ppm a.i.,43%
mancozeb [F174 mancozeb],Efficacy in % found,Venturia inaequalis; 20 ppm a.i.,24%
same,Efficacy in % found,"Phytophthora infestans; Table A2, 10 ppm a.i.",15%
propineb [F180 propineb],Efficacy in % found,"Phytophthora infestans; Table A2, 10 ppm a.i.",23%
